In US20260022142A1, “MACROCYCLIC IMMUNOMODULATORS” (Bristol-Myers Squibb Company, priority 2022, published 2026):
Numbered stars: 1 amine (or outer) side, 2 acyl side, 3 side chain; on linkers, the order of the positions; unused ones are H or OH. Bridge positions count the residues as written; N and C are the ends. Square brackets hold non-standard residues; d marks the D form. Peptide text beside a SMILES is read from it. * marks the point of attachment. ξ: configuration not given here. Bip = N[C@@H](Cc1ccc(-c2ccccc2)cc1)C(=O)O; X13 = N[C@@H](CN*)C(=O)NCCCCCCCCCCC(=O)O; X14 = N[C@H](CN*)C(=O)NCCCCCCCCCCC(=O)O; Phe(3-Me) = Cc1cccc(C[C@H](N)C(=O)O)c1; X16 = O=C(C1CCC(CN[*:1])CC1)[*:2]; X6 = O=C(Cc1ccc(CN[*:1])cc1)[*:2]; hhGln = NC(=O)CCCC[C@H](N)C(=O)O; Cha = N[C@@H](CC1CCCCC1)C(=O)O; Cit = NC(=O)NCCC[C@H](N)C(=O)O; Carboxymethyl = O=C(O)C*; Orn = NCCC[C@H](N)C(=O)O; Aun = NCCCCCCCCCCC(=O)O; Dab = NCC[C@H](N)C(=O)O; ξE = NC(CCC(=O)O)C(=O)O; Dap = NC[C@H](N)C(=O)O; AEEA = NCCOCCOCC(=O)O

Target: T1, PD-1/PD-L1 interaction (PE-labeled human PD-L1-Ig binding to Jurkat cell line over-expressing human PD-1) (Homo sapiens, UniProt Q15116)
T1 construct: expressed in transfected cells; host or cells: Jurkat
T1 sequence (Q15116 25-288): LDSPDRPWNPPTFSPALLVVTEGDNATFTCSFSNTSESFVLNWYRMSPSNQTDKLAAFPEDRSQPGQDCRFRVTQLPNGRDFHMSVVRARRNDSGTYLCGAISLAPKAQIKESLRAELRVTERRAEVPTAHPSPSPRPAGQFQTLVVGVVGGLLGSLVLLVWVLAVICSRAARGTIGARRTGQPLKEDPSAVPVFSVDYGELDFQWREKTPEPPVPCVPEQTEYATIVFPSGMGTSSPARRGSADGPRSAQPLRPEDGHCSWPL
Experiment: Jurkat-PD-1 Cell Binding High-Content Screening Assay (CBA)
Format: cell-based
Conditions: Jurkat cell line over-expressing human PD-1; PE-labeled PD-L1-Ig 20 nM final; read-out: Jurkat hPD1-PDL1 IC50
Summary of the method: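 Binding of fluorescent PD-L1-Ig (20 nM final) to Jurkat-PD-1 cells was measured by automated imaging after 1 h, following a 2 h compound pre-treatment at 37° C.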

CC(C)C[C@H]1NC(=O)[C@H](CCCN)NC(=O)[C@H](C(C)C)NC(=O)[C@H](Cc2ccc(-c3ccccc3)cc2)NC(=O)[C@H](C(C)C)NC(=O)[C@H](Cc2c[nH]c3ccccc23)NC(=O)[C@H](CC(=O)O)NC(=O)[C@H](Cc2ccc(OCC(=O)O)cc2)NC(=O)[C@H](Cc2ccc(OCC(=O)O)cc2)NC(=O)CSC[C@@H](C(=O)NCCCCCCCCCCC(=O)O)NC(=O)[C@H](CCCN)NC(=O)[C@H](C(C)C)NC(=O)[C@H](CC2CCCCC2)NC(=O)[C@H](CCN)NC1=O [Compound 2607] ({CH2CO}-Y(Carboxymethyl)Y(Carboxymethyl)DWV[Bip]V[Orn][dL][Dab][Cha]V[Orn]C[Aun]-OH; thioether N-14)
IC50: 29.7 nM

CC(C)C[C@H]1NC(=O)[C@H](CCCN)NC(=O)[C@H](C(C)C)NC(=O)[C@H](Cc2ccc(-c3ccccc3)cc2)NC(=O)[C@H](C(C)C)NC(=O)[C@H](Cc2c[nH]c3ccccc23)NC(=O)[C@H](CC(=O)O)NC(=O)[C@H](Cc2ccc(OCC(=O)O)cc2)NC(=O)[C@H](Cc2ccc(OCC(=O)O)cc2)NC(=O)CSC[C@@H](C(=O)NCCCCCCCCCCC(=O)O)NC(=O)[C@H](CN)NC(=O)[C@H](C(C)C)NC(=O)[C@H](CC2CCCCC2)NC(=O)[C@H](CCN)NC1=O [Compound 2608] ({CH2CO}-Y(Carboxymethyl)Y(Carboxymethyl)DWV[Bip]V[Orn][dL][Dab][Cha]V[Dap]C[Aun]-OH; thioether N-14)
IC50: 31.7 nM

Cc1cccc(C[C@@H]2NC(=O)[C@H](CC(=O)O)NC(=O)[C@H](Cc3ccc(OCC(=O)O)cc3)NC(=O)[C@H](CN)NC(=O)CSC[C@@H](C(=O)N[C@@H](C)C(=O)NC(CCC(=O)O)C(=O)NCCOCCOCC(=O)NCCCCCCCCCCC(=O)O)NC(=O)[C@H](CCCN)NC(=O)[C@H](C(C)C)NC(=O)[C@H](CC3CCCCC3)NC(=O)[C@H](CCN)NC(=O)[C@@H](CC(C)C)NC(=O)[C@H](CCCN)NC(=O)[C@H](CCCCC(N)=O)NC(=O)[C@H](Cc3ccc(-c4ccccc4)cc3)NC(=O)[C@H](C(C)C)NC2=O)c1 (stereo partly drawn) [Compound 2615] ({CH2CO}-[Dap]Y(Carboxymethyl)D[Phe(3-Me)]V[Bip][hhGln][Orn][dL][Dab][Cha]V[Orn]CA[ξE][AEEA][Aun]-OH; thioether N-14)
IC50: 8.5 nM

Cc1cccc(C[C@@H]2NC(=O)[C@H](CC(=O)O)NC(=O)[C@H](Cc3ccc(OCC(=O)O)cc3)NC(=O)[C@H](CN)NC(=O)CSC[C@@H](C(=O)N[C@@H](C)C(=O)NC(CCC(=O)O)C(=O)NCCOCCOCC(=O)NCCCCCCCCCCC(=O)O)NC(=O)[C@H](CN)NC(=O)[C@H](C(C)C)NC(=O)[C@H](CC3CCCCC3)NC(=O)[C@H](CCN)NC(=O)[C@@H](CC(C)C)NC(=O)[C@H](CCCN)NC(=O)[C@H](CCCNC(N)=O)NC(=O)[C@H](Cc3ccc(-c4ccccc4)cc3)NC(=O)[C@H](C(C)C)NC2=O)c1 (stereo partly drawn) [Compound 2616] ({CH2CO}-[Dap]Y(Carboxymethyl)D[Phe(3-Me)]V[Bip][Cit][Orn][dL][Dab][Cha]V[Dap]CA[ξE][AEEA][Aun]-OH; thioether N-14)
IC50: 16.1 nM

Cc1cccc(C[C@@H]2NC(=O)[C@H](CC(=O)O)NC(=O)[C@H](Cc3ccc(OCC(=O)O)cc3)NC(=O)[C@H](CN)NC(=O)CSC[C@@H](C(=O)N[C@@H](C)C(=O)N[C@@H](CCC(=O)O)C(=O)NCCCCCCCCCCC(=O)O)NC(=O)[C@H](CCCN)NC(=O)[C@H](C(C)C)NC(=O)[C@H](CC3CCCCC3)NC(=O)[C@H](CCN)NC(=O)[C@@H](CC(C)C)NC(=O)[C@H](CCCN)NC(=O)[C@H](CCCNC(N)=O)NC(=O)[C@H](Cc3ccc(-c4ccccc4)cc3)NC(=O)[C@H](C(C)C)NC2=O)c1 [Compound 2617] ({CH2CO}-[Dap]Y(Carboxymethyl)D[Phe(3-Me)]V[Bip][Cit][Orn][dL][Dab][Cha]V[Orn]CAE[Aun]-OH; thioether N-14)
IC50: 6.3 nM

Cc1cccc(C[C@@H]2NC(=O)[C@H](CC(=O)O)NC(=O)[C@H](Cc3ccc(OCC(=O)O)cc3)NC(=O)[C@H](CN)NC(=O)CSC[C@@H](C(=O)N[C@@H](C)C(=O)N[C@@H](CCC(=O)O)C(=O)NCCCCCCCCCCC(=O)O)NC(=O)[C@H](CN)NC(=O)[C@H](C(C)C)NC(=O)[C@H](CC3CCCCC3)NC(=O)[C@H](CCN)NC(=O)[C@@H](CC(C)C)NC(=O)[C@H](CCCN)NC(=O)[C@H](CCCNC(N)=O)NC(=O)[C@H](Cc3ccc(-c4ccccc4)cc3)NC(=O)[C@H](C(C)C)NC2=O)c1 [Compound 2618] ({CH2CO}-[Dap]Y(Carboxymethyl)D[Phe(3-Me)]V[Bip][Cit][Orn][dL][Dab][Cha]V[Dap]CAE[Aun]-OH; thioether N-14)
IC50: 12.5 nM

Cc1cccc(C[C@@H]2NC(=O)[C@H](CC(=O)O)NC(=O)[C@H](Cc3ccc(OCC(=O)O)cc3)NC(=O)[C@H](CN)NC(=O)CSC[C@@H](C(=O)N[C@@H](C)CC(=O)NCCCCCCCCCCC(=O)O)NC(=O)[C@H]([C@@H](C)O)NC(=O)[C@H](C(C)C)NC(=O)[C@H](CC3CCCCC3)NC(=O)[C@H](CCN)NC(=O)[C@@H](CC(C)C)NC(=O)[C@H](CCCN)NC(=O)[C@H](CCCNC(N)=O)NC(=O)[C@H](Cc3ccc(-c4ccccc4)cc3)NC(=O)[C@H](C(C)C)NC2=O)c1 [Compound 2619]
IC50: 24.4 nM

Cc1cccc(C[C@@H]2NC(=O)[C@H](CC(=O)O)NC(=O)[C@H](Cc3ccc(OCC(=O)O)cc3)NC(=O)[C@H](CN)NC(=O)CSC[C@@H](C(=O)N[C@H](C)CC(=O)NCCCCCCCCCCC(=O)O)NC(=O)[C@H]([C@@H](C)O)NC(=O)[C@H](C(C)C)NC(=O)[C@H](CC3CCCCC3)NC(=O)[C@H](CCN)NC(=O)[C@@H](CC(C)C)NC(=O)[C@H](CCCN)NC(=O)[C@H](CCCNC(N)=O)NC(=O)[C@H](Cc3ccc(-c4ccccc4)cc3)NC(=O)[C@H](C(C)C)NC2=O)c1 [Compound 2620]
IC50: 28.1 nM

Cc1cccc(C[C@@H]2NC(=O)[C@H](CC(=O)O)NC(=O)[C@H](Cc3ccc(OCC(=O)O)cc3)NC(=O)[C@H](CN)NC(=O)CSC[C@@H](C(=O)NC[C@H](N)C(=O)NCCCCCCCCCCC(=O)O)NC(=O)[C@H]([C@@H](C)O)NC(=O)[C@H](C(C)C)NC(=O)[C@H](CC3CCCCC3)NC(=O)[C@H](CCN)NC(=O)[C@@H](CC(C)C)NC(=O)[C@H](CCCN)NC(=O)[C@H](CCCNC(N)=O)NC(=O)[C@H](Cc3ccc(-c4ccccc4)cc3)NC(=O)[C@H](C(C)C)NC2=O)c1 [Compound 2621] ({CH2CO}-[Dap]Y(Carboxymethyl)D[Phe(3-Me)]V[Bip][Cit][Orn][dL][Dab][Cha]VTC-X13; thioether N-14)
IC50: 16.8 nM

Cc1cccc(C[C@@H]2NC(=O)[C@H](CC(=O)O)NC(=O)[C@H](Cc3ccc(OCC(=O)O)cc3)NC(=O)[C@H](CN)NC(=O)CSC[C@@H](C(=O)NC[C@@H](N)C(=O)NCCCCCCCCCCC(=O)O)NC(=O)[C@H]([C@@H](C)O)NC(=O)[C@H](C(C)C)NC(=O)[C@H](CC3CCCCC3)NC(=O)[C@H](CCN)NC(=O)[C@@H](CC(C)C)NC(=O)[C@H](CCCN)NC(=O)[C@H](CCCNC(N)=O)NC(=O)[C@H](Cc3ccc(-c4ccccc4)cc3)NC(=O)[C@H](C(C)C)NC2=O)c1 [Compound 2622] ({CH2CO}-[Dap]Y(Carboxymethyl)D[Phe(3-Me)]V[Bip][Cit][Orn][dL][Dab][Cha]VTC-X14; thioether N-14)
IC50: 30.6 nM

Cc1cccc(C[C@@H]2NC(=O)[C@H](CC(=O)O)NC(=O)[C@H](Cc3ccc(OCC(=O)O)cc3)NC(=O)[C@H](CN)NC(=O)CSC[C@@H](C(=O)NCC3CCC(C(=O)NCCCCCCCCCCC(=O)O)CC3)NC(=O)[C@H]([C@@H](C)O)NC(=O)[C@H](C(C)C)NC(=O)[C@H](CC3CCCCC3)NC(=O)[C@H](CCN)NC(=O)[C@@H](CC(C)C)NC(=O)[C@H](CCCN)NC(=O)[C@H](CCCNC(N)=O)NC(=O)[C@H](Cc3ccc(-c4ccccc4)cc3)NC(=O)[C@H](C(C)C)NC2=O)c1 (stereo partly drawn) [Compound 2623] ({CH2CO}-[Dap]Y(Carboxymethyl)D[Phe(3-Me)]V[Bip][Cit][Orn][dL][Dab][Cha]VTC[X16][Aun]-OH; thioether N-14)
IC50: 27.5 nM

Cc1cccc(C[C@@H]2NC(=O)[C@H](CC(=O)O)NC(=O)[C@H](Cc3ccc(OCC(=O)O)cc3)NC(=O)[C@H](CN)NC(=O)CSC[C@@H](C(=O)NCc3ccc(CC(=O)NCCCCCCCCCCC(=O)O)cc3)NC(=O)[C@H]([C@@H](C)O)NC(=O)[C@H](C(C)C)NC(=O)[C@H](CC3CCCCC3)NC(=O)[C@H](CCN)NC(=O)[C@@H](CC(C)C)NC(=O)[C@H](CCCN)NC(=O)[C@H](CCCNC(N)=O)NC(=O)[C@H](Cc3ccc(-c4ccccc4)cc3)NC(=O)[C@H](C(C)C)NC2=O)c1 [Compound 2624] ({CH2CO}-[Dap]Y(Carboxymethyl)D[Phe(3-Me)]V[Bip][Cit][Orn][dL][Dab][Cha]VTC[X6][Aun]-OH; thioether N-14)
IC50: 34.5 nM

CC(C)C[C@H]1NC(=O)[C@H](CCCN)NC(=O)[C@H](CCCNC(N)=O)NC(=O)[C@H](Cc2ccc(-c3ccccc3)cc2)NC(=O)[C@H](C(C)C)NC(=O)[C@H](Cc2c[nH]c3ccccc23)NC(=O)[C@H](CC(=O)O)NC(=O)[C@H](Cc2ccc(OCC(=O)O)cc2)NC(=O)[C@H](CN)NC(=O)CSC[C@@H](C(=O)NCCOCCOCC(=O)N[C@@H](CCN)C(=O)NCCCCCCCCCCC(=O)O)NC(=O)[C@H](CCCCN)NC(=O)[C@H](C(C)C)NC(=O)[C@H](CC2CCCCC2)NC(=O)[C@H](CCN)NC1=O [Compound 2625] ({CH2CO}-[Dap]Y(Carboxymethyl)DWV[Bip][Cit][Orn][dL][Dab][Cha]VKC[AEEA][Dab][Aun]-OH; thioether N-14)
IC50: 16.7 nM

CC[C@H](C)[C@@H]1NC(=O)[C@H](Cc2ccc(-c3ccccc3)cc2)NC(=O)[C@H](C(C)C)NC(=O)[C@H](Cc2c[nH]c3ccccc23)NC(=O)[C@H](CC(=O)O)NC(=O)[C@H](Cc2ccc(OCC(=O)O)cc2)NC(=O)[C@H](CN)NC(=O)CSC[C@@H](C(=O)NCCOCCOCC(=O)N[C@@H](CCN)C(=O)NCCCCCCCCCCC(=O)O)NC(=O)[C@H](CCCCN)NC(=O)[C@H](C(C)C)NC(=O)[C@H](CC2CCCCC2)NC(=O)[C@H](CCN)NC(=O)[C@@H](CC(C)C)NC(=O)[C@H](CCCN)NC1=O [Compound 2626] ({CH2CO}-[Dap]Y(Carboxymethyl)DWV[Bip]I[Orn][dL][Dab][Cha]VKC[AEEA][Dab][Aun]-OH; thioether N-14)
IC50: 11.9 nM
